The NIST ThermoML archive (doi:10.1016/j.fluid.2018.04.025)

Assay: xn = mol fraction of the nth substance listed
Conditions: 101 kPa, Liquid; for viscosity: Falling or rolling sphere viscometry; for speed of sound: Frequency=3 MHz, Sing-around technique in a fixed-path interferometer; for mass density: Vibrating tube method

CCCC[n+]1ccn(C)c1.O=S(=O)([N-]S(=O)(=O)C(F)(F)F)C(F)(F)F + CCCCO
Conditions | mass density [kg/m3] | speed of sound [m/s] | viscosity [mPa·s]
298.15 K, x1 = 0.1041 | 977.145 | 1204.1 | 4.37
298.15 K, x1 = 0.203 | 1088.59 | 1195.1 | 6.8
298.15 K, x1 = 0.3026 | 1170.97 | 1196.1 | 9.05
298.15 K, x1 = 0.409 | 1238.03 | 1200.2 | 11.83
298.15 K, x1 = 0.4987 | 1282.27 | 1204.3 | 14.91
298.15 K, x1 = 0.603 | 1325.15 | 1209.3 | 19.73
298.15 K, x1 = 0.6973 | 1357.81 | 1214.1 | 24.95
298.15 K, x1 = 0.809 | 1390.36 | 1219.2 | 32.11
298.15 K, x1 = 0.9104 | 1415.6 | 1223 | 40.26
298.15 K, x1 = 1 | 1436.02 | 1227.3 | 51.22
303.15 K, x1 = 0.1041 | 972.795 | 1189.7 | 3.85
303.15 K, x1 = 0.203 | 1084 | 1181.7 | 5.85
303.15 K, x1 = 0.3026 | 1166.33 | 1183.4 | 7.68
303.15 K, x1 = 0.409 | 1233.48 | 1188.1 | 9.93
303.15 K, x1 = 0.4987 | 1277.72 | 1192.4 | 12.53
303.15 K, x1 = 0.603 | 1320.71 | 1197.7 | 16.62
303.15 K, x1 = 0.6973 | 1353.3 | 1202.5 | 20.95
303.15 K, x1 = 0.809 | 1385.78 | 1207.8 | 26.73
303.15 K, x1 = 0.9104 | 1411.02 | 1211.9 | 33.01
303.15 K, x1 = 1 | 1431.22 | 1216.3 | 41.91
308.15 K, x1 = 0.1041 | 968.785 | 1175.3 | 3.27
308.15 K, x1 = 0.203 | 1079.65 | 1168.5 | 5.03
308.15 K, x1 = 0.3026 | 1161.89 | 1170.8 | 6.62
308.15 K, x1 = 0.409 | 1228.96 | 1176 | 8.51
308.15 K, x1 = 0.4987 | 1273.42 | 1180.7 | 10.71
308.15 K, x1 = 0.603 | 1316.29 | 1186.2 | 14.13
308.15 K, x1 = 0.6973 | 1348.83 | 1191.2 | 17.82
308.15 K, x1 = 0.809 | 1381.24 | 1196.7 | 22.61
308.15 K, x1 = 0.9104 | 1406.45 | 1200.9 | 27.62
308.15 K, x1 = 1 | 1426.43 | 1205.5 | 34.63
313.15 K, x1 = 0.1041 | 964.582 | 1161 | 2.87
313.15 K, x1 = 0.203 | 1075.17 | 1155.3 | 4.39
313.15 K, x1 = 0.3026 | 1157.28 | 1158.3 | 5.75
313.15 K, x1 = 0.409 | 1224.36 | 1163.9 | 7.36
313.15 K, x1 = 0.4987 | 1268.95 | 1168.9 | 9.24
313.15 K, x1 = 0.603 | 1311.81 | 1174.7 | 12.24
313.15 K, x1 = 0.6973 | 1344.2 | 1180 | 15.31
313.15 K, x1 = 0.809 | 1376.73 | 1185.6 | 19.32
313.15 K, x1 = 0.9104 | 1401.97 | 1189.9 | 23.41
313.15 K, x1 = 1 | 1421.64 | 1194.7 | 28.93
318.15 K, x1 = 0.1041 | 960.208 | 1146.9 | 2.53
318.15 K, x1 = 0.203 | 1070.62 | 1142.3 | 3.86
318.15 K, x1 = 0.3026 | 1152.59 | 1145.8 | 5.04
318.15 K, x1 = 0.409 | 1219.7 | 1151.9 | 6.42
318.15 K, x1 = 0.4987 | 1264.59 | 1157.2 | 8.04
318.15 K, x1 = 0.603 | 1307.37 | 1163.4 | 10.61
318.15 K, x1 = 0.6973 | 1339.66 | 1168.8 | 13.32
318.15 K, x1 = 0.809 | 1372.24 | 1174.6 | 16.64
318.15 K, x1 = 0.9104 | 1397.35 | 1179.1 | 19.93
318.15 K, x1 = 1 | 1416.84 | 1184 | 24.63
323.15 K, x1 = 0.1041 | 955.94 | 1132.9 | 2.24
323.15 K, x1 = 0.203 | 1065.98 | 1129.4 | 3.42
323.15 K, x1 = 0.3026 | 1147.85 | 1133.5 | 4.45
323.15 K, x1 = 0.409 | 1214.91 | 1140 | 5.65
323.15 K, x1 = 0.4987 | 1259.97 | 1145.7 | 7.07
323.15 K, x1 = 0.603 | 1302.8 | 1152.1 | 9.29
323.15 K, x1 = 0.6973 | 1335.11 | 1157.8 | 11.74
323.15 K, x1 = 0.809 | 1367.53 | 1163.8 | 14.53
323.15 K, x1 = 0.9104 | 1392.5 | 1168.4 | 17.32
323.15 K, x1 = 1 | 1411.89 | 1173.5 | 21.11
